According to US9828396B2, “Alkyne compounds for treatment of complement mediated disorders” (Achillion Pharmaceuticals, Inc., priority 2014, dated 2017):

Molecular target: Human factor D (Homo sapiens (Human), UniProt P00746)
Assay: Human Factor D Assay
Type: biochemical
Settings: Human factor D 80 nM, substrate Z-L-Lys-SBzl, assay of Example 12
Experimental: Example 12. Human Factor D Assay
Human factor D (purified from human serum, Complement Technology, Inc.) at 80 nM final concentration is incubated with test compound at various concentrations for 5 minutes at room temperature in 50 mM Tris, 1M NaCl, pH 7.5. A synthetic substrate Z-L-Lys-SBzl and DTNB (Ellman's reagent) are added to final concentrations of 100 μM each. The increase in color is recorded at OD405 nm in a microplate in kinetic mode over 30 minutes with 30 second time points in a spectrofluorimeter. IC50 values are calculated by non-linear regression from the percentage of inhibition of complement factor D activity as a function of test compound concentration.

Human factor D, sequence (P00746 26-253): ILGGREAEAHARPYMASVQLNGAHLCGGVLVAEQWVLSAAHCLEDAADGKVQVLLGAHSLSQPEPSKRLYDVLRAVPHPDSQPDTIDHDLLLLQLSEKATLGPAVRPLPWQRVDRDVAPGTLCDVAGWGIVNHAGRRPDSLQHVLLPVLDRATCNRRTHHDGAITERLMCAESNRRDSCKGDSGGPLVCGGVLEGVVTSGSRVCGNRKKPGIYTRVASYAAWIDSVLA

Row | Compound | IC50 [µM]
1 | C#Cc1ccc2c(C(C)=O)cn(CC(=O)N3C[C@H](F)C[C@H]3C(=O)NCc3cccc(Cl)c3F)c2c1 [Compound 1, (2S,4R)-1-(2-(3-acetyl-6-ethynyl-1H-indol-1-yl)acetyl)-N-(3-chloro-2-fluorobenzyl)-4-fluoropyrrolidine-2-carboxamide] | < 1
2 | CC(=O)c1cn(CC(=O)N2C[C@H](F)C[C@H]2C(=O)NCc2cccc(Cl)c2F)c2cc(C#CC(=O)O)ccc12 [Compound 2, 3-(3-acetyl-1-(2-((2S,4R)-2-(3-chloro-2-fluorobenzylcarbamoyl)-4-fluoropyrrolidin-1-yl)-2-oxoethyl)-1H-indol-6-yl)propiolic acid] | < 1
3 | CC(=O)c1cn(CC(=O)N2C[C@H](F)C[C@H]2C(=O)NCc2cccc(Cl)c2F)c2cc(C#C[Si](C)(C)C)ccc12 [Compound 3, (2S,4R)-1-(2-(3-acetyl-6-((trimethylsilyl)ethynyl)-1H-indol-1-yl)acetyl)-N-(3-chloro-2-fluorobenzyl)-4-fluoropyrrolidine-2-carboxamide] | < 1
4 | COC(=O)C#Cc1ccc2c(C(C)=O)cn(CC(=O)N3C[C@H](F)C[C@H]3C(=O)NCc3cccc(Cl)c3F)c2c1 [Compound 4, methyl 3-(3-acetyl-1-(2-((2S,4R)-2-(3-chloro-2-fluorobenzylcarbamoyl)-4-fluoropyrrolidin-1-yl)-2-oxoethyl)-1H-indol-6-yl)propiolate] | < 1
5 | CC(=O)c1cn(CC(=O)N2C[C@H](F)C[C@H]2C(=O)NCc2cccc(Cl)c2F)c2cc(C#Cc3c[nH]c(=O)nc3N)ccc12 [Compound 5, (2S,4R)-1-(2-(3-acetyl-6-((4-amino-2-oxo-1,2-dihydropyrimidin-5-yl)ethynyl)-1H-indol-1-yl)acetyl)-N-(3-chloro-2-fluorobenzyl)-4-fluoropyrrolidine-2-carboxamide] | < 1
6 | CC(=O)c1cn(CC(=O)N2C[C@H](F)C[C@H]2C(=O)NCc2cccc(Cl)c2F)c2ccc(C#CC(=O)O)cc12 [Compound 6, 3-(3-acetyl-1-(2-((2S,4R)-2-(3-chloro-2-fluorobenzylcarbamoyl)-4-fluoropyrrolidin-1-yl)-2-oxoethyl)-1H-indol-5-yl)propiolic acid] | < 1
7 | CC(=O)c1cn(CC(=O)N2C[C@H](F)C[C@H]2C(=O)NCc2cccc(Cl)c2F)c2ccc(C#Cc3c[nH]c(=O)nc3N)cc12 [Compound 7, (2S,4R)-1-(2-(3-acetyl-5-((4-amino-2-oxo-1,2-dihydropyrimidin-5-yl)ethynyl)-1H-indol-1-yl)acetyl)-N-(3-chloro-2-fluorobenzyl)-4-fluoropyrrolidine-2-carboxamide] | < 1
8 | CCS(=O)(=O)NC(=O)C#Cc1ccc2c(c1)c(C(C)=O)cn2CC(=O)N1C[C@H](F)C[C@H]1C(=O)NCc1cccc(Cl)c1F [Compound 8, (2S,4R)-1-(2-(3-acetyl-5-(3-(ethylsulfonamido)-3-oxoprop-1-ynyl)-1H-indol-1-yl)acetyl)-N-(3-chloro-2-fluorobenzyl)-4-fluoropyrrolidine-2-carboxamide] | < 1
9 | CC(=O)c1cn(CC(=O)N2C[C@H](F)C[C@H]2C(=O)NCc2cccc(Cl)c2F)c2ccc(C#Cc3ncccn3)cc12 [Compound 9, (2S,4R)-1-(2-(3-acetyl-5-(pyrimidin-2-ylethynyl)-1H-indol-1-yl)acetyl)-N-(3-chloro-2-fluorobenzyl)-4-fluoropyrrolidine-2-carboxamide] | < 1
10 | CCS(=O)(=O)NC(=O)C#Cc1ccc2c(C(C)=O)cn(CC(=O)N3C[C@H](F)C[C@H]3C(=O)NCc3cccc(Cl)c3F)c2c1 [Compound 10, (2S,4R)-1-(2-(3-acetyl-6-(3-(ethylsulfonamido)-3-oxoprop-1-ynyl)-1H-indol-1-yl)acetyl)-N-(3-chloro-2-fluorobenzyl)-4-fluoropyrrolidine-2-carboxamide] | < 1
11 | O=C(O)C#Cc1ccc2c(C(=O)C(F)(F)F)cn(CC(=O)N3C[C@H](F)C[C@H]3C(=O)NCc3cccc(Cl)c3F)c2c1 [Compound 11, 3-(1-(2-((2S,4R)-2-(3-chloro-2-fluorobenzylcarbamoyl)-4-fluoropyrrolidin-1-yl)-2-oxoethyl)-3-(2,2,2-trifluoroacetyl)-1H-indol-6-yl)propiolic acid] | < 1
12 | CC(=O)c1cn(CC(=O)N2C[C@H](F)C[C@H]2C(=O)NCc2cccc(Cl)c2F)c2ccc(C#Cc3ncc(O)cn3)cc12 [Compound 13, (2S,4R)-1-(2-(3-acetyl-5-((5-hydroxypyrimidin-2-yl)ethynyl)-1H-indol-1-yl)acetyl)-N-(3-chloro-2-fluorobenzyl)-4-fluoropyrrolidine-2-carboxamide] | < 1
13 | CC(=O)c1cn(CC(=O)N2C[C@H](F)C[C@H]2C(=O)NCc2cccc(Cl)c2F)c2ccc(C#Cc3ccccc3)cc12 [Compound 14, (2S,4R)-1-(2-(3-acetyl-5-(phenylethynyl)-1H-indol-1-yl)acetyl)-N-(3-chloro-2-fluorobenzyl)-4-fluoropyrrolidine-2-carboxamide] | < 1
14 | C#Cc1cccc(NC(=O)[C@@H]2C[C@@H](F)CN2C(=O)Cn2nc(C(N)=O)c3ccncc32)c1F [Compound 15, 1-(2-((2S,4R)-2-(3-ethynyl-2-fluorophenylcarbamoyl)-4-fluoropyrrolidin-1-yl)-2-oxoethyl)-1H-pyrazolo[3,4-c]pyridine-3-carboxamide] | < 1
15 | CC(=O)c1cn(CC(=O)N2C[C@H](F)C[C@H]2C(=O)NCc2cccc(Cl)c2F)c2ccc(C#Cc3cncnc3)cc12 [Compound 16, (2S,4R)-1-(2-(3-acetyl-5-(pyrimidin-5-ylethynyl)-1H-indol-1-yl)acetyl)-N-(3-chloro-2-fluorobenzyl)-4-fluoropyrrolidine-2-carboxamide] | < 1
16 | CC(=O)c1cn(CC(=O)N2C[C@H](F)C[C@H]2C(=O)NCc2cccc(Cl)c2F)c2ccc(C#Cc3ccncc3)cc12 [Compound 17, (2S,4R)-1-(2-(3-acetyl-5-(pyridin-4-ylethynyl)-1H-indol-1-yl)acetyl)-N-(3-chloro-2-fluorobenzyl)-4-fluoropyrrolidine-2-carboxamide] | < 1
17 | CC(=O)c1cn(CC(=O)N2C[C@H](F)C[C@H]2C(=O)NCc2cccc(Cl)c2F)c2ccc(C#Cc3cnsc3)cc12 [Compound 18, (2S,4R)-1-(2-(3-acetyl-5-(isothiazol-4-ylethynyl)-1H-indol-1-yl)acetyl)-N-(3-chloro-2-fluorobenzyl)-4-fluoropyrrolidine-2-carboxamide] | < 1
18 | CC(=O)c1cn(CC(=O)N2C[C@H](F)C[C@H]2C(=O)NCc2cccc(Cl)c2F)c2ccc(C#Cc3ccccn3)cc12 [Compound 19, (2S,4R)-1-(2-(3-acetyl-5-(pyridin-2-ylethynyl)-1H-indol-1-yl)acetyl)-N-(3-chloro-2-fluorobenzyl)-4-fluoropyrrolidine-2-carboxamide] | < 1
19 | NC(=O)c1nn(CC(=O)N2C[C@H](F)C[C@H]2C(=O)NCc2cccc(Cl)c2F)c2ccc(C#Cc3ncccn3)cc12 [Compound 20, 1-(2-((2S,4R)-2-(3-chloro-2-fluorobenzylcarbamoyl)-4-fluoropyrrolidin-1-yl)-2-oxoethyl)-5-(pyrimidin-2-ylethynyl)-1H-indazole-3-carboxamide] | < 1
20 | CC(=O)c1cn(CC(=O)N2[C@@H]3C[C@@H]3C[C@H]2C(=O)Nc2cccc(Br)n2)c2ccc(C#Cc3ncccn3)cc12 [Compound 21, (1R,3S,5R)-2-(2-(3-acetyl-5-(pyrimidin-2-ylethynyl)-1H-indol-1-yl)acetyl)-N-(6-bromopyridin-2-yl)-2-azabicyclo[3.1.0]hexane-3-carboxamide] | < 1
21 | NC(=O)c1nn(CC(=O)N2C[C@H](F)C[C@H]2C(=O)Nc2cccc(-c3ccccc3Cl)c2F)c2ccc(C#Cc3ncccn3)cc12 [Compound 22, 1-(2-((2S,4R)-2-(2′-chloro-2-fluorobiphenyl-3-ylcarbamoyl)-4-fluoropyrrolidin-1-yl)-2-oxoethyl)-5-(pyrimidin-2-ylethynyl)-1H-indazole-3-carboxamide] | < 1
22 | NC(=O)c1nn(CC(=O)N2C[C@H](F)C[C@H]2C(=O)NCc2cccc(Cl)c2F)c2ccc(C#Cc3ccccn3)cc12 [Compound 23, 1-(2-((2S,4R)-2-(3-chloro-2-fluorobenzylcarbamoyl)-4-fluoropyrrolidin-1-yl)-2-oxoethyl)-5-(pyridin-2-ylethynyl)-1H-indazole-3-carboxamide] | < 1
23 | CC(=O)c1cn(CC(=O)N2C[C@H](F)C[C@H]2C(=O)NCc2cccc(Cl)c2F)c2ccc(C#Cc3c[nH]nc3C#N)cc12 [Compound 24, (2S,4R)-1-(2-(3-acetyl-5-((3-cyano-1H-pyrazol-4-yl)ethynyl)-1H-indol-1-yl)acetyl)-N-(3-chloro-2-fluorobenzyl)-4-fluoropyrrolidine-2-carboxamide] | < 1
24 | NC(=O)c1nn(CC(=O)N2C[C@H](F)C[C@H]2C(=O)Nc2cccc(Cl)c2F)c2ccc(C#Cc3ncccn3)cc12 [Compound 25, 1-(2-((2S,4R)-2-(3-chloro-2-fluorophenylcarbamoyl)-4-fluoropyrrolidin-1-yl)-2-oxoethyl)-5-(pyrimidin-2-ylethynyl)-1H-indazole-3-carboxamide] | < 1
25 | CC(=O)c1cn(CC(=O)N2C[C@H](F)C[C@H]2C(=O)NCc2cccc(Cl)c2F)c2ccc(C#Cc3cnccn3)cc12 [Compound 26, (2S,4R)-1-(2-(3-acetyl-5-(pyrazin-2-ylethynyl)-1H-indol-1-yl)acetyl)-N-(3-chloro-2-fluorobenzyl)-4-fluoropyrrolidine-2-carboxamide] | < 1
26 | NC(=O)c1nn(CC(=O)N2[C@@H]3C[C@@H]3C[C@H]2C(=O)Nc2cccc(-c3ccccc3Cl)c2F)c2ccc(C#Cc3ncccn3)cc12 [Compound 27, 1-(2-((1R,3S,5R)-3-(2′ chloro-2-fluorobiphenyl-3-ylcarbamoyl)-2-azabicyclo[3.1.0]hexan-2-yl)-2-oxoethyl)-5-(pyrimidin-2-ylethynyl)-1H-indazole-3-carboxamide] | < 1
